Assay results from patent US11806339B2, “Combination therapy of Axl inhibitor and EGFR tyrosine kinase inhibitor” (Daiichi Sankyo Company, Limited, priority 2017, dated 2023).
Where a name gives a salt, the structure may show the parent alone.

Tests used:
HCC827 cells = assay: In vivo effect of combined use of Compound A and osimertinib on subcutaneously transplanted HCC827 tumors (estimated tumor volume); design: species or system nude mouse;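 further: subcutaneous xenografts in female nude mice, tumor axes measured by caliper over time, volume as major axis × minor axis²/2, dosing from Day 1 five days weekly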
Procedure: (§1) 0.1 mL of the prepared cell suspension was subcutaneously transplanted to each nude mouse (female, 5 weeks old). […] The administration was started on the day (Day 1) following the grouping date and carried out five times a week (Saturday and Sunday were set to drug holidays). […] The major axis (mm) and minor axis (mm) of each tumor were measured over time using an electronic digital caliper. The estimated tumor volume was calculated according to the expression (1) given below, and plotted. Also, the body weight was measured over time using an automatic balance for small animals. The rate of change in body weight (Change in body weight (%)) was calculated according to the expression (2) given below. […] Estimated tumor volume (mm^3)=Mean estimated tumor volume of individuals per group (1) Estimated tumor volume of each individual=An×Bn^2/2
An: Major axis of the tumor at Day n
(§2) Bn: Minor axis of the tumor at Day n Change in body weight (%)=Mean rate of change in body weights of individuals per group (2) Rate of change in body weight of each individual=(1−BWn/BWs)×100

[1] = Change in body weight and general symptoms in HCC827 tumor-bearing mice
Procedure: as §1, §2
BWn: Body weight at Day n
BWs: Body weight at the initial day of administration

[2] = Day 0, Compound A 12.5 mg/kg, bid
[3] = Day 0, Compound A 25 mg/kg, bid
[4] = Day 0, Compound A 50 mg/kg, bid
[5] = Day 4, Compound A 12.5 mg/kg, bid
[6] = Day 4, Compound A 25 mg/kg, bid
[7] = Day 4, Compound A 50 mg/kg, bid
[8] = Day 7, Compound A 12.5 mg/kg, bid
[9] = Day 7, Compound A 25 mg/kg, bid
[10] = Day 7, Compound A 50 mg/kg, bid
[11] = Day 11, Compound A 12.5 mg/kg, bid
[12] = Day 11, Compound A 25 mg/kg, bid
[13] = Day 11, Compound A 50 mg/kg, bid
[14] = Day 14, Compound A 12.5 mg/kg, bid
[15] = Day 14, Compound A 25 mg/kg, bid
[16] = Day 14, Compound A 50 mg/kg, bid
[17] = Day 18, Compound A 12.5 mg/kg, bid
[18] = Day 18, Compound A 25 mg/kg, bid
[19] = Day 18, Compound A 50 mg/kg, bid
[20] = Day 21, Compound A 12.5 mg/kg, bid
[21] = Day 21, Compound A 25 mg/kg, bid
[22] = Day 21, Compound A 50 mg/kg, bid
[23] = Day 25, Compound A 12.5 mg/kg, bid
[24] = Day 25, Compound A 25 mg/kg, bid
[25] = Day 25, Compound A 50 mg/kg, bid
[26] = Day 28, Compound A 25 mg/kg, bid
[27] = Day 11, osimertinib 3 mg/kg, qd
[28] = Day 14, osimertinib 3 mg/kg, qd
[29] = Day 18, osimertinib 3 mg/kg, qd
[30] = Day 21, osimertinib 3 mg/kg, qd
[31] = Day 25, osimertinib 3 mg/kg, qd
[32] = Day 28, osimertinib 3 mg/kg, qd
[33] = Day 32, osimertinib 3 mg/kg, qd
[34] = Day 35, osimertinib 3 mg/kg, qd
[35] = Day 39, osimertinib 3 mg/kg, qd
[36] = Day 46, osimertinib 3 mg/kg, qd
[37] = Day 49, osimertinib 3 mg/kg, qd
[38] = Day 53, osimertinib 3 mg/kg, qd
[39] = Day 56, osimertinib 3 mg/kg, qd
[40] = Day 60, osimertinib 3 mg/kg, qd
[41] = Day 63, osimertinib 3 mg/kg, qd
[42] = Day 67, osimertinib 3 mg/kg, qd
[43] = Day 74, osimertinib 3 mg/kg, qd
[44] = Day 77, osimertinib 3 mg/kg, qd
[45] = Day 81, osimertinib 3 mg/kg, qd
[46] = Day 84, osimertinib 3 mg/kg, qd
[47] = Day 88, osimertinib 3 mg/kg, qd
[48] = Day 91, osimertinib 3 mg/kg, qd
[49] = Day 95, osimertinib 3 mg/kg, qd
[50] = Day 100, osimertinib 3 mg/kg, qd

COc1cc(-c2cnc(N)c(-c3ccc(NC(=O)c4cn(CC5CCOCC5)cc(-c5ccc(C)cn5)c4=O)cc3F)c2)ccc1OC[C@H]1COCCO1 [Compound A, N-[4-(2-amino-5-{4-[(2R)-1,4-dioxan-2-ylmethoxy]-3-methoxyphenyl}pyridin-3-yl)-3-fluorophenyl]-5-methyl-4′-oxo-1′-(tetrahydro-2H-pyran-4-ylmethyl)-1′,4′-dihydro-2,3′-bipyridine-5′-carboxamide sulfate hydrate]
Mean estimated tumor volume (HCC827 cells; [2]): 269.0 mm^3 | Mean estimated tumor volume (HCC827 cells; [3]): 273.7 mm^3 | Mean estimated tumor volume (HCC827 cells; [4]): 279.7 mm^3 | Mean estimated tumor volume (HCC827 cells; [5]): 376.3 mm^3 | Mean estimated tumor volume (HCC827 cells; [6]): 366.6 mm^3 | Mean estimated tumor volume (HCC827 cells; [7]): 386.5 mm^3 | Mean estimated tumor volume (HCC827 cells; [8]): 446.8 mm^3 | Mean estimated tumor volume (HCC827 cells; [9]): 458.8 mm^3 | Mean estimated tumor volume (HCC827 cells; [10]): 468.3 mm^3 | Mean estimated tumor volume (HCC827 cells; [11]): 580.4 mm^3 | Mean estimated tumor volume (HCC827 cells; [12]): 550.8 mm^3 | Mean estimated tumor volume (HCC827 cells; [13]): 579.7 mm^3 | Mean estimated tumor volume (HCC827 cells; [14]): 647.2 mm^3 | Mean estimated tumor volume (HCC827 cells; [15]): 631.7 mm^3 | Mean estimated tumor volume (HCC827 cells; [16]): 676.8 mm^3 | Mean estimated tumor volume (HCC827 cells; [17]): 759.0 mm^3 | Mean estimated tumor volume (HCC827 cells; [18]): 718.2 mm^3 | Mean estimated tumor volume (HCC827 cells; [19]): 816.3 mm^3 | Mean estimated tumor volume (HCC827 cells; [20]): 835.6 mm^3 | Mean estimated tumor volume (HCC827 cells; [21]): 792.0 mm^3 | Mean estimated tumor volume (HCC827 cells; [22]): 856.2 mm^3 | Mean estimated tumor volume (HCC827 cells; [23]): 1013.6 mm^3 | Mean estimated tumor volume (HCC827 cells; [24]): 939.4 mm^3 | Mean estimated tumor volume (HCC827 cells; [25]): 1037.5 mm^3 | Mean estimated tumor volume (HCC827 cells; [26]): 1097.1 mm^3 | Mean change in body weight [1, 2]: 0.0% | Mean change in body weight [1, 3]: 0.0% | Mean change in body weight [1, 4]: 0.0% | Mean change in body weight [1, 5]: 1.3% | Mean change in body weight [1, 6]: 0.6% | Mean change in body weight [1, 7]: 0.9% | Mean change in body weight [1, 8]: 0.7% | Mean change in body weight [1, 9]: 1.8% | Mean change in body weight [1, 10]: 1.4% | Mean change in body weight [1, 11]: 1.2% | Mean change in body weight [1, 12]: 1.0% | Mean change in body weight [1, 13]: 2.9% | Mean change in body weight [1, 14]: 0.4% | Mean change in body weight [1, 15]: 0.0% | Mean change in body weight [1, 16]: 2.4% | Mean change in body weight [1, 17]: 3.6% | Mean change in body weight [1, 18]: 0.6% | Mean change in body weight [1, 19]: 3.6% | Mean change in body weight [1, 20]: 4.8% | Mean change in body weight [1, 21]: 3.1% | Mean change in body weight [1, 22]: 6.7% | Mean change in body weight [1, 23]: 4.4% | Mean change in body weight [1, 24]: 4.6% | Mean change in body weight [1, 25]: 5.1% | Mean change in body weight [1, 26]: 3.0%

C=CC(=O)Nc1cc(Nc2nccc(-c3cn(C)c4ccccc34)n2)c(OC)cc1N(C)CCN(C)C [osimertinib, N-(2-{[2-(dimethylamino)ethyl](methyl)amino}-4-methoxy-5-{[4-(1-methyl-1H-indol-3-yl)pyrimidin-2-yl]amino}phenyl)propen-2-amide]
Mean estimated tumor volume (HCC827 cells; Day 0, osimertinib 3 mg/kg, qd): 259.3 mm^3 | Mean estimated tumor volume (HCC827 cells; Day 4, osimertinib 3 mg/kg, qd): 93.1 mm^3 | Mean estimated tumor volume (HCC827 cells; Day 7, osimertinib 3 mg/kg, qd): 56.7 mm^3 | Mean estimated tumor volume (HCC827 cells; [27]): 38.7 mm^3 | Mean estimated tumor volume (HCC827 cells; [28]): 33.1 mm^3 | Mean estimated tumor volume (HCC827 cells; [29]): 30.9 mm^3 | Mean estimated tumor volume (HCC827 cells; [30]): 29.6 mm^3 | Mean estimated tumor volume (HCC827 cells; [31]): 32.0 mm^3 | Mean estimated tumor volume (HCC827 cells; [32]): 32.0 mm^3 | Mean estimated tumor volume (HCC827 cells; [33]): 35.5 mm^3 | Mean estimated tumor volume (HCC827 cells; [34]): 42.1 mm^3 | Mean estimated tumor volume (HCC827 cells; [35]): 44.9 mm^3 | Mean estimated tumor volume (HCC827 cells; [36]): 53.3 mm^3 | Mean estimated tumor volume (HCC827 cells; [37]): 63.7 mm^3 | Mean estimated tumor volume (HCC827 cells; [38]): 80.8 mm^3 | Mean estimated tumor volume (HCC827 cells; [39]): 92.4 mm^3 | Mean estimated tumor volume (HCC827 cells; [40]): 103.3 mm^3 | Mean estimated tumor volume (HCC827 cells; [41]): 134.1 mm^3 | Mean estimated tumor volume (HCC827 cells; [42]): 146.2 mm^3 | Mean estimated tumor volume (HCC827 cells; [43]): 182.1 mm^3 | Mean estimated tumor volume (HCC827 cells; [44]): 220.1 mm^3 | Mean estimated tumor volume (HCC827 cells; [45]): 285.7 mm^3 | Mean estimated tumor volume (HCC827 cells; [46]): 341.2 mm^3 | Mean estimated tumor volume (HCC827 cells; [47]): 404.1 mm^3 | Mean estimated tumor volume (HCC827 cells; [48]): 509.3 mm^3 | Mean estimated tumor volume (HCC827 cells; [49]): 602.4 mm^3 | Mean estimated tumor volume (HCC827 cells; [50]): 727.5 mm^3 | Day at which the tumor became bigger than its size at the start of administration (acquired resistance) (HCC827 cells; mouse, in vivo, 3 mg/kg): 81 days | Effect on tumor immediately after administration (HCC827 cells; osimertinib administered alone, 3 mg/kg qd): tumor regression effect | Mean change in body weight ([1]; Day 0, osimertinib 3 mg/kg, qd): 0.0% | Mean change in body weight ([1]; Day 4, osimertinib 3 mg/kg, qd): 0.1% | Mean change in body weight ([1]; Day 7, osimertinib 3 mg/kg, qd): 1.0% | Mean change in body weight [1, 27]: 0.3% | Mean change in body weight [1, 28]: 1.1% | Mean change in body weight [1, 29]: 0.9% | Mean change in body weight [1, 30]: 2.7% | Mean change in body weight [1, 31]: 2.6% | Mean change in body weight [1, 32]: 1.1% | Mean change in body weight [1, 33]: 2.0% | Mean change in body weight [1, 34]: 3.1% | Mean change in body weight [1, 35]: 4.0% | Mean change in body weight ([1]; Day 42, osimertinib 3 mg/kg, qd): 3.2% | Mean change in body weight [1, 36]: 4.5% | Mean change in body weight [1, 37]: 5.0% | Mean change in body weight [1, 38]: 5.1% | Mean change in body weight [1, 39]: 5.3% | Mean change in body weight [1, 40]: 5.4% | Mean change in body weight [1, 41]: 5.7% | Mean change in body weight [1, 42]: 6.4% | Mean change in body weight ([1]; Day 70, osimertinib 3 mg/kg, qd): 5.7% | Mean change in body weight [1, 43]: 7.4% | Mean change in body weight [1, 44]: 6.6% | Mean change in body weight [1, 45]: 8.9% | Mean change in body weight [1, 46]: 8.0% | Mean change in body weight [1, 47]: 8.8% | Mean change in body weight [1, 48]: 9.6% | Mean change in body weight [1, 49]: 11.7% | Mean change in body weight ([1]; Day 98, osimertinib 3 mg/kg, qd): 11.2% | Mean change in body weight [1, 50]: 11.9%
